target: T1, fatty acyl CoA:cholesterol acyl transferase (ACAT) (Rattus norvegicus, UniProt O70536); assay: Inhibition of enzymatic esterification of cholesterol (ACAT) in rat adrenal supernatant containing the microsomal fraction; type: biochemical; details: final concentration of test compound 5.2 μg./ml., 14C-oleoyl CoA, 37° C., read-out: % INHIBITION (percent inhibition of the ACAT enzyme as compared to control values)
T1 construct: The supernatant, containing the microsomal fraction, served as the source of the cholesterol-esterifying enzyme; from tissue; host or cells: rat adrenals, homogenate supernatant (1,000 x g) containing the microsomal fraction
T1 sequence (O70536 1-545): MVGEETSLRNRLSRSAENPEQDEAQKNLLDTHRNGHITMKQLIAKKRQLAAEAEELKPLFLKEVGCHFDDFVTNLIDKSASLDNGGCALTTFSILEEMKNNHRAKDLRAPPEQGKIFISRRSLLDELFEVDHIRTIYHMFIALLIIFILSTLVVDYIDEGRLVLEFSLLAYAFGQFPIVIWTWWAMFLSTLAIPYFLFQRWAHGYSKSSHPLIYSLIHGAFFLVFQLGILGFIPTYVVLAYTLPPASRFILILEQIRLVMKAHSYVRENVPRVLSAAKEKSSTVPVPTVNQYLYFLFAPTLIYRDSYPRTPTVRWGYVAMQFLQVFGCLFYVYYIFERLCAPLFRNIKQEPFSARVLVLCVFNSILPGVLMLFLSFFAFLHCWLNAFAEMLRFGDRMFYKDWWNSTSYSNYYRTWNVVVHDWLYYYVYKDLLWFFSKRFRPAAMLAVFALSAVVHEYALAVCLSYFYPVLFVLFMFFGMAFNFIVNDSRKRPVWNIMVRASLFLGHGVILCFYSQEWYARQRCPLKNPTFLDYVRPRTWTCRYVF
Procedure: The compounds of the present invention were tested for their ability to inhibit the enzymatic esterification of cholesterol according to the following procedure:
Rat adrenals were homogenized in 0.2M monobasic potassium phosphate buffer, pH 7.4, and centrifuged at 1,000 times gravity for 15 minutes at 5° C. The supernatant, containing the microsomal fraction, served as the source of the cholesterol-esterifying enzyme, fatty acyl CoA:cholesterol acyl transferase (ACAT). A mixture comprising 50 parts of adrenal supernatant, 10 parts of albumin (BSA) (50 mg./ml.), 20 parts of oleoyl CoA (^14 C-0.4 μCi), 3 parts of test compound, and 500 parts of buffer was pre-incubated at 37° C. for 10 minutes. After treatment with 20 parts of oleoyl CoA (^14 C-0.4 μCi), the mixture was incubated at 37° C. for 10 minutes. A control mixture, omitting the test compound, was prepared and treated in the same manner. The lipids from the incubation mixture were extracted into an organic solvent and separated by thin-layer chromatography. The cholesterol ester fraction was counted in a scintillation counter. This procedure is a modification of that described by Hashimoto, et al., Life Scie., 12 (Part II), 1-12 (1973).
The results of this test on representative compounds of this invention appear in Table I. The final concentration of the test compound was 5.2 μg./ml., and effectiveness of the compound is expressed as percent inhibition of the ACAT enzyme as compared to control values.

| SMILES | inhibition at 5.2 µg/mL |
| --- | --- |
| O=C(C=C1c2ccccc2C=Cc2ccccc21)Nc1ccc(C(=O)O)cc1 [4-(5H-Dibenzo[a,d]cycloheptene-Δ^5,α -acetamido) benzoic acid] | 47% |
| O=C(CC1c2ccccc2Sc2ccccc21)Nc1ccc(C(=O)O)cc1 [4-[Thioxanthene-9-acetamido]benzoic acid, 4-[(9-Thioxanthenyl)acetamido]benzoic acid] | 37% |

Second part, the molecule after the results:

| inhibition at 5.2 µg/mL | SMILES |
| --- | --- |
| 20% | CCOC(=O)c1ccc(NC(=O)C=C2c3ccccc3C=Cc3ccccc32)cc1 [Ethyl 4-(5H-dibenzo[a,d]cycloheptene-Δ^5,α -acetamido) benzoate] |
| 9% | CCOC(=O)c1ccc(NC(=O)CC2c3ccccc3Sc3ccccc32)cc1 [Ethyl 4-[(9-thioxanthenyl)acetamido]benzoate] |
| 51% | O=C(C=C1c2ccccc2CCc2ccccc21)Nc1ccc(C(=O)O)cc1 [p-(10,11-Dihydro-5H-dibenzo[a,d]cycloheptene-Δ^5,α -acetamido)benzoic acid] |

Source: patent US4489090A, “Dibenzocycloalkanamido and dibenzothioxanthenyl benzoic acids” (American Cyanamid Company, priority 1983, dated 1984)
